From patent US11639940B2, “Method for determining sensitivity of cyclin-dependent kinase 4/6 inhibitor” (SYSMEX CORPORATION, priority 2019, dated 2023)
pIC50: −log10 of the molar value. Where two headings read alike, the source gives them in different places.

Legend:
DU4475 = assay: cytotoxicity test using WST-8 (number of viable cells); assay type: cell-based; conditions: Homo sapiens, DU-4475, 48 h, DU4475, 48 hours
Description: (§1) Six types of breast cancer cell lines, T47D, MCF7, HCC1500, CAMA-1, DU4475 and MDA-MB-231, were used. T47D, MCF7, HCC1500 and CAMA-1 are HER2-negative/ER-positive breast cancer cell lines, and DU4475 and MDA-MB-231 are cell lines derived from triple negative breast cancer (TNBC). […] In the analysis, the survival rate of the untreated cell line was set to 100%.

HCC1500 = assay: as above; assay type: cell-based; conditions: HCC1500, 48 hours
Description: as §1

MCF7 = assay: as above; assay type: cell-based; conditions: Homo sapiens, MCF7, 48 hours
Description: as §1

MDA-MB-231 = assay: as above; assay type: cell-based; conditions: Homo sapiens, MDA-MB-231, 48 hours
Description: as §1

T47D = assay: as above; assay type: cell-based; conditions: Homo sapiens, 48 hours
Description: as §1

CAMA-1 = assay: as above; assay type: cell-based; conditions: Homo sapiens, CAMA-1, 48 hours
Experimental: Six types of breast cancer cell lines, T47D, MCF7, HCC1500, CAMA-1, DU4475 and MDA-MB-231, were used. T47D, MCF7, HCC1500 and CAMA-1 are HER2-negative/ER-positive breast cancer cell lines, and DU4475 and MDA-MB-231 are cell lines derived from triple negative breast cancer (TNBC). […] In the analysis, the survival rate of the untreated cell line was set to 100%. The IC50 value was calculated from the normalized data by performing curve fitting using KaleidaGraph 4.0.

CDK2 [1] = assay: expression level by Western blot in lysate of treated breast cancer cell lines; assay type: cell-based; conditions: 48 h
Experimental: (§2) After 48 hours, cells were recovered.
(§3) To quantitatively analyze the expression levels, recombinant CDK proteins (rCDK2, rCDK4 and rCDK6) were electrophoresed at 5.0 ng, 2.5 ng, 1.0 ng, 0.75 ng, 0.5 ng and 0.2 ng as standard proteins.

CDK6 = assay: as above; assay type: cell-based; conditions: 48 h
Experimental: as §2, §3

CDK2 [2] = assay: CDK activity (phosphorylated substrate peptide, HISCL ELISA) in lysate of treated breast cancer cell lines; assay type: cell-based; parameters: CDK2 Activity: unit not given here; conditions: 48 h; for CDK2 Specific activity: activity/expression level
Experimental: After 48 hours, cells were recovered. […] Specifically, it was performed as follows. […] The composition of the substrate solution was as follows. […] The measurement was performed by Automated Immunoassay System […] Corporation). This measurement is based on ELISA on magnetic particles.

breast cancer cell lines = assay: cytotoxicity test using WST-8, summary over the cell lines; assay type: cell-based
Description: as §1

CDK4 = conditions: 48 h
Experimental: After 48 hours, cells were recovered. A cell solubilization buffer was added to a cell pellet to be 5×10^7 cells/mL to lyse the cells, and the supernatant was recovered by centrifugation to obtain a cell lysate (hereinafter also referred to as a “lysate sample”).
The expression levels of CDK2, CDK4 and CDK6 were measured by Western blot as follows. Samples for electrophoresis (1 mg/mL lysate sample, 2×sample buffer and 10% 2-mercaptoethanol) were prepared from each lysate sample obtained in the above (2). Each of samples for electrophoresis (10 μL/lane) was electrophoresed on a polyacrylamide gel. To quantitatively analyze the expression levels, recombinant CDK proteins (rCDK2, rCDK4 and rCDK6) were electrophoresed at 5.0 ng, 2.5 ng, 1.0 ng, 0.75 ng, 0.5 ng and 0.2 ng as standard proteins. The gel after electrophoresis was transferred to a membrane by a conventional method, and a primary reaction was performed using an anti-CDK2 antibody, an anti-CDK4 antibody, and an anti-CDK6 antibody. Then, a secondary reaction was performed using an HRP-labeled antibody, and further reacted with SuperSignal West Femto Substrate (Thermo Fisher), and a chemiluminescent signal was detected with an X-ray film. The blot was quantitatively analyzed by Image Lab 5.2.1 (Bio Rad) to calculate the expression levels (nmol/L) of CDK2, CDK4 and CDK6 in each lysate sample.

`CC(=O)c1c(C)c2cnc(Nc3ccc(N4CCNCC4)cn3)nc2n(C2CCCC2)c1=O` [palbociclib] gave a pIC50 (DU4475) of less than 5.00, a pIC50 (HCC1500) of 5.27 and a pIC50 (MCF7) of 6.12. The pIC50 (MDA-MB-231) was 6.32, the pIC50 (T47D) was 6.69 and the pIC50 (CAMA-1) was 6.05. The “Expression level CDK2” value (CDK2 [1]; CAMA-1, palbociclib 426 nM) was 2.8 nmol/L, the “Expression level CDK2” value (CDK2 [1]; DU4475, palbociclib 426 nM) was 12.3 nmol/L and the “Expression level CDK2” value (CDK2 [1]; HCC1500, palbociclib 426 nM) was 2.9 nmol/L. For the same molecule, the “Expression level CDK2” value (CDK2 [1]; MCF7, palbociclib 426 nM) was 3.0 nmol/L, the “Expression level CDK2” value (CDK2 [1]; MDA-MB-231, palbociclib 426 nM) was 3.0 nmol/L and the “Expression level CDK2” value (CDK2 [1]; T47D, palbociclib 426 nM) was 5.7 nmol/L. The “Expression level CDK6” value (CDK6; CAMA-1, palbociclib 426 nM) was 0.4 nmol/L, the “Expression level CDK6” value (CDK6; DU4475, palbociclib 426 nM) was 60.9 nmol/L and the “Expression level CDK6” value (CDK6; HCC1500, palbociclib 426 nM) was 0.4 nmol/L. The “Expression level CDK6” value (CDK6; MCF7, palbociclib 426 nM) was 4.3 nmol/L, the “Expression level CDK6” value (CDK6; MDA-MB-231, palbociclib 426 nM) was 20.1 nmol/L and the “CDK2 Activity” value (CDK2 [2]; CAMA-1, palbociclib 426 nM) was 0.7. For the same molecule, the “CDK2 Specific activity” value (CDK2 [2]; CAMA-1, palbociclib 426 nM) was 0.25, the “CDK2 Activity” value (CDK2 [2]; DU4475, palbociclib 426 nM) was 14.5 and the “CDK2 Specific activity” value (CDK2 [2]; DU4475, palbociclib 426 nM) was 1.17. The “CDK2 Activity” value (CDK2 [2]; HCC1500, palbociclib 426 nM) was 0.7, the “CDK2 Specific activity” value (CDK2 [2]; HCC1500, palbociclib 426 nM) was 0.25 and the “CDK2 Activity” value (CDK2 [2]; MCF7, palbociclib 426 nM) was 1.6. For the same molecule, the “CDK2 Specific activity” value (CDK2 [2]; MCF7, palbociclib 426 nM) was 0.53, the “CDK2 Activity” value (CDK2 [2]; MDA-MB-231, palbociclib 426 nM) was 0.7 and the “CDK2 Specific activity” value (CDK2 [2]; MDA-MB-231, palbociclib 426 nM) was 0.24. For the same molecule, the “CDK2 Activity” value (CDK2 [2]; T47D, palbociclib 426 nM) was 2.1, the “CDK2 Specific activity” value (CDK2 [2]; T47D, palbociclib 426 nM) was 0.36 and the pIC50 (breast cancer cell lines; average over the breast cancer cell lines, read-out: IC50 Average) was 5.81. The pIC50 (breast cancer cell lines; median over the breast cancer cell lines, read-out: IC50 Median) was 6.12, the “Expression level CDK4” value (CDK4; CAMA-1, palbociclib 426 nM) was 18.9 nmol/L and the “Expression level CDK4” value (CDK4; DU4475, palbociclib 426 nM) was 16.6 nmol/L. For the same molecule, the “Expression level CDK4” value (CDK4; HCC1500, palbociclib 426 nM) was 12.7 nmol/L, the “Expression level CDK4” value (CDK4; MCF7, palbociclib 426 nM) was 39.4 nmol/L and the “Expression level CDK4” value (CDK4; MDA-MB-231, palbociclib 426 nM) was 20.7 nmol/L. The “Expression level CDK4” value (CDK4; T47D, palbociclib 426 nM) was 18.8 nmol/L.
